Results published in US20070082910A1, “Specific nad(p)h oxidase inhibitor” (Mitsubishi Pharma Corporation, priority 2003, published 2007).
Marks after values point to notes of the source that are not given here.

Key:
[1] = tested on: rabbit myocardial infarction model; experiment: Rabbit ischemia-reperfusion myocardial infarction model; format: in vivo; settings: 1 mg/kg 1 hr before ligation; normal group as 100%
From the text: Male NZW rabbits (Japan SLC) were fixed in the dorsal position and subjected to thoracotomy with pentobarbital anesthesia. A silk thread (No. 4) was applied to the proximal left coronary artery, a polyethylene tube (length 1 cm) was further applied and the left coronary artery was ligated using a thread. After 2 hr from the ligation, the thread on the polyethylene tube was cut to reperfusion. After 4 hr from the reperfusion, the proximal coronary artery was ligated using a silk thread (No. 4), and 3% Evans blue solution (1 mL/kg) was intravenously administered. After 5 min, an excess pentobarbital was administered and the heart and aorta were removed. The heart was cut into a 3 mm-wide annular shape, and the left ventricle area and ischemia region (Evans blue unstained region) were traced.
After incubation in 1% TTC solution for 30 min, an infarction focus (TTC unstained region) was traced. Compound A (1 mg/kg) was administered 1 hr before the ligation.
The ratios of the ischemic region and infarction focus to the left ventricle area were calculated. […]
This suspension was centrifuged at 3000 rpm for 10 min, and the supernatant (8 mL) was centrifuged at 15000 rpm for 15 min. The obtained supernatant was mixed with phosphate buffer containing o-dianisidine dihydrochloride, kept at 25° C. for 30 min, the absorbance (OD460) was measured, and the myeloperoxidase (MPO) activity was determined. […]

[2] = tested on: rat acute myocardial infarction model; experiment: Rat left coronary artery-ligated myocardial infarction model; format: in vivo
From the text: Male SD rats (Japan SLC) were fixed in the dorsal position with ether anesthesia, and subjected to thoracotomy by vertical incision along the left sternal line according to the method by Selye H. et al. (Angiology, 1960, 11, 398) to expose the heart. The left coronary artery was ligated using a silk thread (No. 4) at 1-2 mm from the basal part, the heart was put back in place and quickly deaerated, and the chest was closed. The rat was confirmed to have myocardial infarction with an electrocardiograph (NIHON KOHDEN). The rat was exsanguinated to death from the abdominal aorta 24 hr after ligation. The heart was removed, and a circular cross-section at the center thereof was incubated in a solution of 1% 2,3,5-triphenyltetrazolium chloride (hereinafter to be indicated as “TTC”) in 0.1 M phosphate buffer for 20 min under light shielding. Thereafter, the section was fixed with formalin buffer, traced, and the areas of infarction region (TTC unstained region) and left ventricle were calculated. Immediately after coronary artery ligation, compound A was suspended in 1% CMC solution and orally administered to the rat.
The inhibitory rate was calculated by the following formula: [formula] [formula]
In addition, compound A (1 mg/kg) was orally administered at 15 min, 1 hr and 3 hr after ligation, and infarction inhibitory effect was examined.

[3] = tested on: NAD(P)H oxidase in normal rat aorta; experiment: Effect on normal rat NAD(P)H oxidase (superoxide anion production in aorta after administration); format: in vivo; settings: 10 mg/kg for 3 days
Description: The test compound (10 mg/kg) was administered to normal male Wistar rats (Japan SLC) for 3 days, and the production amount of superoxide anion in the aorta was measured in the same manner as in Experimental Example 2.
The inhibitory rate (%) was calculated by the following formula: inhibitory rate (%)=100−(A/B)×100 wherein A is the standardized chemiluminescence value of the rats administered with the test compound, and B is the standardized chemiluminescence value of the rats without administration of the test compound (control group).

NAD(P)H oxidase = experiment: IL-8 production inhibitory effect in HUVEC cultured with 44 mM glucose; format: cell-based, human; settings: for inhibitory rate (%) of IL-8 production: 8 days
Description: NAD(P)HOxidase Inhibitory Effect (Method)
44 mM glucose was added to Human Umbilical Vein Endothelial Cells (Bio Whittaker, hereinafter to be indicated as “HUVEC”), and cells were cultured for 8 days. Then, a lysis buffer containing a surfactant, Triton-X Nonidet P-40, was added, and interleukin-8 (hereinafter to be indicated as “IL-8”) in the cell lysate, which had been produced by NAD(P)H oxidase was measured by an enzyme-linked […]. The test compound was added one day before glucose addition.
The inhibitory rate was calculated from the following formula: inhibitory rate (%)=100−[(A−C)/(B−C)]×100
wherein A is IL-8 production of a cell cultured in the presence of 44 mM glucose with addition of the test compound, B is IL-8 production of a cell cultured in the presence of 44 mM glucose without addition of the test compound, and C is IL-8 production of a cell cultured in the absence of 44 mM glucose and the test compound. The IC50 value was calculated from the dose-effect line drawn by the least squares method based on the obtained inhibitory rate.

[4] = tested on: NAD(P)H oxidase in diabetic rat aorta; experiment: Aorta NAD(P)H oxidase inhibitory effect, test compound added to aorta ring specimen in vitro; format: biochemical; settings: for chemiluminescence (×10^5 RLU/wet weight of aorta): mean ± standard error
Description: This ring specimen was preincubated in Krebs-Hepes buffer containing the test compound (compound A, compound B or DPI (SIGMA)) at 37° C. for 10 min, and then transferred to Krebs-Hepes buffer containing 0.25 mM lucigenin. […] The total value of chemiluminescence was calculated from AUC of the curve drawn by plotting the chemiluminescence value (vertical axis) relative to the measurement time (horizontal axis). The obtained chemiluminescence value was divided by the wet weight of the vascular ring specimen and standardized to the superoxide anion production per aorta unit weight.

[5] = 0.1 mg/kg oral immediately after coronary artery ligation, 24 hr
[6] = 0.3 mg/kg oral immediately after coronary artery ligation, 24 hr
[7] = 1 mg/kg oral immediately after coronary artery ligation, 24 hr
[8] = 1 mg/kg oral, 15 min after ligation
[9] = 1 mg/kg oral, 1 hr after ligation
[10] = 1 mg/kg oral, 3 hr after ligation
[11] = 0.1 μM added to aorta ring in vitro
[12] = 1 μM added to aorta ring in vitro

C[C@@H](Nc1nnc(-c2ccccc2)c2ccccc12)C1CCCCC1.O=C(O)/C=C\C(=O)O [compound A]
MPO activity in myocyte [1]: 128%*
infarction rate (%) [2, 5]: 40%
inhibitory rate (%) of infarction [2, 5]: 0%
infarction rate (%) [2, 6]: 17.2** %
inhibitory rate (%) of infarction [2, 6]: 57** %
infarction rate (%) [2, 7]: 6.3** %
inhibitory rate (%) of infarction [2, 7]: 84.3** %
infarction rate (%) [2, 8]: 10.5** %
inhibitory rate (%) of infarction [2, 8]: 73.8%
infarction rate (%) [2, 9]: 16.7** %
inhibitory rate (%) of infarction [2, 9]: 58.3%
infarction rate (%) [2, 10]: 29.3* %
inhibitory rate (%) of infarction [2, 10]: 26.8%
inhibitory rate (%), NAD(P)H oxidase in normal rat aorta [3]: 1.8%
effect on superoxide anion production in normal rat ([3]; result in words): did not affect the superoxide anion production
chemiluminescence (×10^5 RLU/wet weight of aorta) ([3]; normal rat aorta, mean ± standard error): 3.89 ± 3.0 ×10^5 RLU/wet weight of aorta
IC50 (NAD(P)H oxidase; from dose-effect line by least squares): 6.3 nM
inhibitory rate (%) of IL-8 production (NAD(P)H oxidase; test compound concentration 0.01 μM): 39.5%
inhibitory rate (%) of IL-8 production (NAD(P)H oxidase; test compound concentration 0.1 μM): 59.8%
inhibitory rate (%) of IL-8 production (NAD(P)H oxidase; test compound concentration 1 μM): 74%
inhibitory rate (%) [4, 11]: 2.2%
chemiluminescence (×10^5 RLU/wet weight of aorta) [4, 11]: 9.1 ± 1.7 ×10^5 RLU/wet weight of aorta
inhibitory rate (%) [4, 12]: 1.1%
chemiluminescence (×10^5 RLU/wet weight of aorta) [4, 12]: 9.2 ± 1.7 ×10^5 RLU/wet weight of aorta
NAD(P)H oxidase inhibitory effect on aorta ring in vitro ([4]; result in words): did not show an NAD(P)H oxidase inhibitory effect
